B1: NGF: neurotrophin nerve growth factor (protein)
chain: SSTHPVFHMGEFSVCDSVSVWVGDKTTATDIKGKEVTVLAEVNINNSVFRQYFFETKCRASNPVESGCRGIDSKHWNSYCTTTHTFVKALTTDEKQAAWRFIRIDTACVCVLSRKATRRG

How the values were obtained:
[1] = tested on: Shc, ERK1/2, and Akt kinases; assay: Phosphorylation of Shc, ERK1/2 and Akt kinases in PC12 cells (Western blot); type: cell-based; settings: serum deprived naive PC12 cells, 10 min; 100 nM DHEA, 100 ng/ml NGF
Protocol: (§1) PC12 or HEK293 cells lysates were electrophoresed through a 12% SDS-polyacrylamide gel, and then proteins were transferred to nitrocellulose membranes, which were processed according to standard Western blotting procedures, as previously described. To detect protein levels, membranes were incubated with the appropriate antibodies: Bcl-2 (dilution 1∶500), phospho TrkA (dilution 1∶500), total TrkA (dilution1∶500), p75^NTR (dilution 1∶500), phospho Shc (dilution 1∶1000), total Shc (dilution 1∶1000), phospho Akt (dilution 1∶500), total Akt (dilution 1∶500), phospho ERK1/2 (dilution 1∶500), and total ERK1/2 (dilution 1∶500). Proteins were visualized using the ECL Western blotting kit (ECL Amersham Biosciences, UK), and blots were exposed to Kodak X-Omat AR films. A PC-based Image Analysis program was used to quantify the intensity of each band (Image Analysis, Inc., Ontario, Canada).
(§2) To normalize for protein content the blots were stripped and stained with GAPDH antibody (dilution 1∶1000); the concentration of each target protein was normalized versus GAPDH. Where phosphorylation of TrkA or kinases was measured, membranes were first probed for the phosphorylated form of the protein, then stripped, and probed for the total protein.

[2] = target: T1, TrkA (Rattus norvegicus, UniProt P35739); assay: TrkA phosphorylation in HEK293^TrkA transfectants (anti-tyrosine IP, Western blot); type: cell-based; parameters: expressed in transfected cells; host or cells: HEK293; settings: 10 min (and 20 min), steroids 100 nM, NGF 100 ng/ml
T1 sequence (P35739 33-799): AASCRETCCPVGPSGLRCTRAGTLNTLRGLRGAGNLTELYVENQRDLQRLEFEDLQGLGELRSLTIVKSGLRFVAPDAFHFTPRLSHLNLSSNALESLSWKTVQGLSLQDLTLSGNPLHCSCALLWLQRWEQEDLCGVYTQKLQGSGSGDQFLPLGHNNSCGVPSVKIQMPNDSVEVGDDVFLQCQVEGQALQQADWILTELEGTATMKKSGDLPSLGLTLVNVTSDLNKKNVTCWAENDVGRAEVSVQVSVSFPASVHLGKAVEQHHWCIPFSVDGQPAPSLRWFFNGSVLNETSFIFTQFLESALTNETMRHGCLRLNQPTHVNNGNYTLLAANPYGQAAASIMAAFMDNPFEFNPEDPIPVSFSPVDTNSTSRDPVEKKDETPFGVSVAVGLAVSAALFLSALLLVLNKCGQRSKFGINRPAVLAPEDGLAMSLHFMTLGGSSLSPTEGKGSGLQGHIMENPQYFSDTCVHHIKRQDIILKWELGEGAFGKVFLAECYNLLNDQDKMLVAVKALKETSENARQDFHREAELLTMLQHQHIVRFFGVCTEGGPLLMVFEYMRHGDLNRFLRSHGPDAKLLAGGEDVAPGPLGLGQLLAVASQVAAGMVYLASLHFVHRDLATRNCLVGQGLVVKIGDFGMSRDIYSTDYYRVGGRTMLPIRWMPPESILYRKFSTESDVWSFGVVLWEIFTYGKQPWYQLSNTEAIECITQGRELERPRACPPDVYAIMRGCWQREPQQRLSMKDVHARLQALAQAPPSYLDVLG
Protocol: (§3) HEK293 cells were transfected with the appropriate plasmids (TrkA, p75^NTR, RIP2, TRAF-6, and RhoGDI) by using Lipofectamine 2000 (Invitrogen). Cells were harvested 48 h after transfection and suspended in lysis buffer (50 mM Tris-HCl, 0.15 M NaCl, 1% Triton-X100, pH 7.4) supplemented with protease inhibitors. Lysates were precleared for 1 h with Protein A-Sepharose beads (Amersham) and immunoprecipitated with the appropriate antibody (pTyr, Flag, or c-myc) overnight at 4°C. Protein A Sepharose beads were incubated with the lysates for 4 h at 4°C with gentle shaking. […] Beads were collected by centrifugation, washed four times with lysis buffer, and resuspended in SDS loading buffer. Proteins were separated by SDS/PAGE, followed by immunoblotting with specific antibodies.
as §1, §2

[3] = target: T2, p75^NTR (Rattus norvegicus, UniProt P07174); assay: [3H]-DHEA saturation binding to membranes of HEK293 cells transfected with p75NTR cDNA; settings: KD of [3H]-DHEA binding (Scatchard analysis), n = 3
T2 construct: expressed in transfected cells; host or cells: HEK293
T2 sequence (P07174 30-425): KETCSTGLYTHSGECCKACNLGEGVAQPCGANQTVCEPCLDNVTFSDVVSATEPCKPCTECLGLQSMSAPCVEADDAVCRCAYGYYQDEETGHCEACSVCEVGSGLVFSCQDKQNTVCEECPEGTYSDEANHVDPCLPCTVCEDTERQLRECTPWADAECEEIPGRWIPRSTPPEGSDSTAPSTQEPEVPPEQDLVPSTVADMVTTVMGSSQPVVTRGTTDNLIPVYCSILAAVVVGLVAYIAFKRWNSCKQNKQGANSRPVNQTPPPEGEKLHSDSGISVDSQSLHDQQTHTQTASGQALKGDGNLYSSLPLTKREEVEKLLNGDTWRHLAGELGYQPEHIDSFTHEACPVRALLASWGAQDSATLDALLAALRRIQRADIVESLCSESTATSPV

[4] = tested on: PC12 cell membranes; assay: [3H]-DHEA saturation binding to PC12 cell membranes; settings: membranes from PC12 cells transfected with siRNA against GAPDH; listed as [^3H]-DHEA; read-out: KD of [3H]-DHEA binding (Scatchard analysis)
[5] = target: T2, p75^NTR; assay: [125I]-NGF displacement, HEK293^p75NTR cell membranes; type: binding; settings: unpublished data
[6] = target: T1, TrkA; assay: [3H]-DHEA saturation binding to membranes of HEK293 cells transfected with TrkA cDNA; parameters: expressed in transfected cells; host or cells: HEK293; settings: KD of [3H]-DHEA binding (Scatchard analysis), n = 3
[7] = target: T3, p75^NTR with effectors TRAF6, RIP2, RhoGDI (Rattus norvegicus, UniProt P07174); assay: Co-immunoprecipitation of p75NTR with effectors TRAF6, RIP2, RhoGDI in co-transfected HEK293 cells; type: cell-based; settings: co-transfected HEK293, 30 min; 100 nM DHEA, 100 ng/ml NGF
T3 construct: expressed in transfected cells; host or cells: HEK293
T3 sequence (P07174 30-425): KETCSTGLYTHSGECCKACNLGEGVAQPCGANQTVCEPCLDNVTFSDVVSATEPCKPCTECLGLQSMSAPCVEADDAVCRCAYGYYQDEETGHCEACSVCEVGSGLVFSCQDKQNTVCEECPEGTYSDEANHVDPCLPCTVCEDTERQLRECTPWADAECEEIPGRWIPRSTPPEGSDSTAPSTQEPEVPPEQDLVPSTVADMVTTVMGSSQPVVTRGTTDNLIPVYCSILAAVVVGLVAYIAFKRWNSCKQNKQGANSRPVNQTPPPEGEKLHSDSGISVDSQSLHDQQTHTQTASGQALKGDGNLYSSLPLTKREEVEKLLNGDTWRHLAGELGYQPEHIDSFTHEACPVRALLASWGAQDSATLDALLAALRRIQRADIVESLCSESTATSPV
Protocol: as §3

[8] = target: T1, TrkA; assay: [125I]-NGF displacement, HEK293^TrkA cell membranes; type: binding; parameters: expressed in transfected cells; host or cells: HEK293; settings: unpublished data
[9] = tested on: nnr5 cells; assay: Apoptosis of nnr5 cells (PC12 clone expressing only p75NTR); type: cell-based; settings: DHEA 100 nM, NGF 100 ng/ml
Protocol: PC12 cells were obtained from LGC Promochem (LGC Standards GmbH, Germany) and nnr5 cells from Dr. C.F. Ibáñez (Karolinska Institute). Both cell types were grown in RPMI 1640 containing 2 mM L-glutamine, 15 mM HEPES, 100 units/ml penicillin, 0.1 mg/ml streptomycin, and 10% horse serum, 5% fetal calf serum (both charcoal-stripped for removing endogenous steroids) at 5% CO2 and 37°C. HEK-293 cells were obtained from LGC Promochem. Cells were grown in DMEM medium containing 10% fetal bovine serum (charcoal-stripped for removing endogenous steroids), 100 units/ml penicillin, and 0.1 mg/ml streptomycin, at 5% CO2 and […]. HEK-293 and PC12 cells were transfected with Lipofectamine 2000 (InVitrogen) according to manufacturer's instructions. Transfected cells were typically used on the 2nd day after transfection.
(§4) PC12 cells were cultured in 12-well plates, and 24 h later they were transfected with the si/shRNAs for TrkA and/or p75^NTR. […] Apoptosis was quantified 24 h later with annexin V-FITC and PI (BD Pharmingen) according to our protocol.

[10] = tested on: TrkA positive sensory neurons of dorsal root ganglia; assay: Apoptotic loss of sensory neurons in dorsal root ganglia of NGF null mouse embryos; settings: ngf−/− embryos at E14, mothers treated daily with DHEA 2 mg
Protocol: ngf+/− mice [13] were obtained from the Jackson Laboratory and maintained on C57BL/6 background. […] Animals were housed in cages maintained under a constant 12 h light–dark cycle at 21–23°C, with free access to food and tap water.
Mice heterozygous for the NGF null mutation were interbred to obtain mice homozygous for the NGF gene disruption and the first day of gestation determined by the discovery of a copulation plug. The mothers were treated daily with a subcutaneous injection of DHEA (2 mg/day) or vehicle (4.5% ethanol in 0.9% saline) starting from the third day after gestation. Animals were collected at E14. At the day of collection the mothers were deeply anesthetized with sodium pentobarbital (Dolethal 0.7 ml/kg i.p.) followed by transcardial perfusion with saline solution containing heparin for about 7 min, and with 4% PFA, 15% Picric Acid, 0.05% GA in phosphate buffer 0.1 M, for another 7 min. After the perfusion the embryos were collected and maintained in the same fixative overnight at 4°C. Embryos were then washed in 0.1 M phosphate buffer and cryoprotected by using 10% sucrose followed by 20% sucrose overnight at 4°C. Finally, embryos were frozen in OCT in iso-pentane over liquid nitrogen for 5 min and the frozen tissues were stored for later use at −80°C. The samples were sectioned (20 µm) and mounted onto Superfrost plus slides (Menzel-Glaser J1800AMNZ). Slides were left to air-dry overnight at room temperature (RT) and were then either used immediately or were fixed in cold acetone for 1 min and stored at −80°C for later use.
Stored or fresh slides were fixed for 15 min in cold acetone at 4°C and left to dry for 10 min at room temperature. They were then washed in PB 0.1 M, then in TBS, and incubated for 45 min with 10% horse serum in TBS-T 0.1%. […] Sections were incubated for 4 h at RT and overnight at 4°C; they were then washed in TBS-T 0.1% and the anti-rabbit secondary antibodies (Alexa Fluor 488 and Alexa Fluor 546, 1∶1000 in TBS-T 0.1%) were added for 6 h at RT. […]

[11] = tested on: TrkA; assay: TrkA protein levels in serum deprived PC12 cells (immunoblotting); type: cell-based; settings: serum deprived PC12, 12 to 48 h; 100 nM DHEA, 100 ng/ml NGF; n = 5, p<0.01
Protocol: as §1, §2

[12] = target: T1, TrkA; assay: Tyr490 TrkA phosphorylation in naive PC12 cells (Western blot); type: cell-based; parameters: PC12 cells, endogenously expressing TrkA receptors; endogenous in cells; host or cells: PC12; settings: 10 min, DHEA 100 nM, NGF 100 ng/ml
Protocol: as §1, §2

[13] = tested on: PC12 cells; assay: Apoptosis of serum deprived PC12 cells, FACS Annexin V-FITC and PI; type: cell-based; settings: serum free, 100 nM, 24 h, n = 8; serum free control 53.5%±17.6%
Protocol: as §4

[14] = tested on: p75^NTR; assay: p75NTR protein levels in serum deprived PC12 cells (immunoblotting); type: cell-based; settings: serum deprived PC12, between 24 and 48 h; 100 nM DHEA, 100 ng/ml NGF; n = 5, p<0.01
Protocol: as §1, §2

[15] = tested on: sympathetic SCG neurons; assay: NGF deprivation-induced apoptosis of superior cervical ganglia sympathetic neurons, Annexin V; type: cell-based, rat; settings: 100 nM DHEA, medium lacking NGF with anti-NGF antiserum
Protocol: Cells were plated on collagen coated 24-well plates and cultured for 5 d prior to use.

[16] = target: TrkA receptor; parameters: method as in PMID 16939974; settings: read-out: KD of NGF binding to TrkA receptor; cited from earlier work
[17] = tested on: PC12 cell membranes; assay: [3H]-DHEA displacement, PC12 cell membranes; type: binding; settings: unpublished data
Protocol: HEK293 cells transfected with an empty vector (HEK293-Vector) or overexpressing p75^NTR (HEK293-p75) or TrkA (HEK293-TrkA), and PC12 cells wild type or shRNA knocked down for p75^NTR and TrkA, were cultured, collected by scraping on ice and washed twice with cold Phosphate Buffer Saline (PBS), pH 7.4. After centrifugation at 1,200 rpm, cells were homogenized in a 50 mM Tris-HCl buffer, pH 7.4 (at 4°C), containing freshly added protease inhibitors (1 mM PMSF and 1 µg/ml aprotinin). Crude membrane fractions were isolated by differential centrifugation at 2,500×g (10 min at 4°C, to remove unbroken cells and nuclei) and 102,000×g (1 h, at 4°C). Membranes were washed once with ice-cold 50 mM Tris–HCl buffer, pH 7.4, and re-suspended in the same buffer. […]
Membranes were incubated for 30 min at 25°C or overnight at 4°C, on a rotating plate; then they were collected on GF/B filters, prewetted in 0.5% PEI solution at 4°C. Filters were washed three times with ice-cold PBS, dried, and counted in scintillation fluid (SigmaFluor, Sigma) in a scintillation counter (Perkin Elmer, Foster City, CA) with 60% efficiency for Tritium. For saturation curves, specific binding (Bound, B) was calculated as the difference of Total Binding − Non Specific Binding. KDs were calculated from B/F over B Scatchard plots. […]

[18] = target: p75^NTR receptor; parameters: method as in PMID 16939974; settings: read-out: KD of NGF binding to p75NTR receptor; cited from earlier work

Row | Molecule | phosphorylation of Shc, ERK1/2, and Akt kinases [1] | phosphorylation of TrkA [2] | association of p75NTR with effectors TRAF6 and RIP2 [7] | dissociation of RhoGDI from p75NTR receptors [7] | effect on apoptosis of nnr5 cells [9] | TrkA receptor levels [11] | phosphorylation of TrkA (Tyr490) [12] | p75NTR receptor levels [14] | also measured
1 | C[C@]12CC[C@H](O)CC1=CC[C@@H]1[C@@H]2CC[C@]2(C)C(=O)CC[C@@H]12 [DHEA, dehydroepiandrosterone] | strongly increased | strongly increased | efficiently induced the association | facilitating the dissociation | induced apoptosis | significantly increased | strongly induced | significantly decreased | Kd ([3]; 25°C for 30 min): 5.6 ± 0.55 nM; Kd ([3]; overnight incubation at 4°C): 5.9 ± 1.7 nM; Kd [4]: 1.07 ± 0.43 nM; displacement of [125I]-NGF binding (in words) [5]: unable to effectively displace; Kd ([6]; 25°C for 30 min): 7.4 ± 1.75 nM; Kd ([6]; overnight incubation at 4°C): 7.8 ± 3.1 nM; displacement of [125I]-NGF binding (in words) [8]: unable to effectively displace; Fluoro Jade C and Caspase 3 positive neurons in the DRG [10]: significantly reduced; TUNEL-positive apoptotic neurons in the DRG [10]: decreased to levels shown in ngf+/− embryos; TrkA positive staining in the DRG [10]: significant increase; increase of apoptosis (% of difference from serum supplemented cells) [13]: 6%±1.4%; effect on apoptotic sympathetic neurons after NGF withdrawal [15]: effectively compensated for NGF by decreasing the levels of apoptotic neurons
2 | B1 | strongly increased | strongly increased | efficiently induced the association | facilitating the dissociation | induced apoptosis | significantly increased | strongly induced | significantly decreased | Kd [16]: 0.01 nM; IC50 [17]: 0.92 ± 0.32 nM; Kd [18]: 1 nM

Source: publication PMC3082517 (PLoS Biology, 2011)
